In ChEMBL document CHEMBL4831503, “Design, synthesis, in vitro and in vivo anti-respiratory syncytial virus (RSV) activity of novel oxizine fused benzimidazole derivatives” (Eur J Med Chem, 2021):
The source made the active and inactive calls. No cut-off for these calls is given here.

Legend:
[1] = tested on: Respiratory syncytial virus; assay: Antiviral activity against Respiratory syncytial virus infected in human HEp-2 cells incubated for 60 hrs by MTT assay; format: functional, organism-based; conditions: HEp-2, 60 h
[2] = Cytotoxicity against human HEp-2 cells assessed as reduction in cell viability measured after 60 hrs by MTT assay; format: cell-based
[3] = tested on: Respiratory syncytial virus; assay: Antiviral activity against Respiratory syncytial virus Long infected in human HEp-2 cells assessed as reduction in viral infection incubated for 60 hrs by MTT assay; format: functional, organism-based; conditions: HEp-2, 60 h
[4] = tested on: Respiratory syncytial virus; assay: Antiviral activity against Respiratory syncytial virus Long infected in African green monkey Vero cells assessed as reduction in viral infection incubated for 60 hrs by MTT assay; format: functional, organism-based; conditions: human respiratory syncytial virus
[5] = tested on: Human orthopneumovirus; assay: Antiviral activity against Respiratory syncytial virus A2 infected in human HEp-2 cells assessed as reduction in viral infection incubated for 60 hrs by MTT assay; format: functional, organism-based; conditions: A2, HEp-2, 60 h
[6] = tested on: Human orthopneumovirus; assay: Antiviral activity against Respiratory syncytial virus A2 infected in human A549 cells assessed as reduction in viral infection incubated for 60 hrs by MTT assay; format: functional, organism-based; conditions: A2, A549, 60 h
[7] = tested on: Respiratory syncytial virus; assay: Antiviral activity against Respiratory syncytial virus Long infected in human HEp-2 cells assessed as reduction in viral infection up to 50 uM treated 2 hpi measured after 60 hrs by MTT assay; format: functional, organism-based; conditions: dose microM <=50, time 60.0 hrs
[8] = tested on: Human orthopneumovirus; assay: Antiviral activity against Respiratory syncytial virus A2 infected in human HEp-2 cells assessed as reduction in viral infection up to 50 uM treated 2 hpi measured after 60 hrs by MTT assay; format: functional, organism-based; conditions: dose microM <=50, time 60.0 hrs
[9] = tested on: Respiratory syncytial virus; assay: Antiviral activity against Respiratory syncytial virus infected in human HEp-2 cells assessed as inhibition of viral replication at 25 uM treated up to 14 hpi and measured after 60 hrs by MTT assay; format: functional, organism-based
[10] = tested on: Respiratory syncytial virus; assay: Inhibition of RSV induced apoptosis in human HEp-2 cells assessed as late apoptotic cells at 25 uM measured after 60 hrs by Annexin V-FITC/PI staining based flow cytometry analysis (reference value: 20.2%); format: functional; design: scale not given: the % may be the effect or the level left
[11] = tested on: Respiratory syncytial virus; assay: Inhibition of RSV induced apoptosis in human HEp-2 cells assessed as early apoptotic cells at 50 uM measured after 60 hrs by Annexin V-FITC/PI staining based flow cytometry analysis (reference value: 10.3%); format: functional; design: scale not given: the % may be the effect or the level left
[12] = tested on: Respiratory syncytial virus; assay: Inhibition of RSV induced apoptosis in human HEp-2 cells assessed as reduction in cleaved caspase-7 expression measured after 48 hrs by Western blot analysis; format: functional, organism-based
[13] = Inhibition of RSV induced ROS production in human HEp-2 cells assessed as reduction in accumulation of ROS-positive cells at 50 uM measured after 36 hrs by DCHF-DA staining based flow cytometry analysis (reference value: 82.2%); format: functional, Respiratory syncytial virus; design: scale not given: the % may be the effect or the level left
[14] = tested on: HEp-2; assay: Induction of ROS production in human HEp-2 cells assessed as accumulation of ROS-positive cells at 25 uM measured after 36 hrs by DCHF-DA staining based flow cytometry analysis (reference value: 48.2%); format: functional
[15] = tested on: HEp-2; assay: Inhibition of RSV induced autophagy flux in RSV-infected infected human HEP-2 cells by measuring p62 expression at 25 to 50 uM measured after 24 hrs by Western blot analysis; format: functional, cell-based; conditions: Respiratory syncytial virus, dose 25-50 µM
[16] = tested on: Respiratory syncytial virus; assay: Antiviral activity against RSV infected in human HEp-2 cells assessed as decrease in virus induced TRAF3 gene expression measured after 48 hrs by RT-PCR analysis; format: functional, organism-based
[17] = tested on: Respiratory syncytial virus; assay: Antiviral activity against RSV infected in human HEp-2 cells assessed as decrease in virus induced TBK1 gene expression measured after 48 hrs by RT-PCR analysis; format: functional, organism-based
[18] = tested on: Respiratory syncytial virus; assay: Antiviral activity against RSV infected in human HEp-2 cells assessed as decrease in virus induced IRF3 gene expression measured after 48 hrs by RT-PCR analysis; format: functional, organism-based
[19] = tested on: Respiratory syncytial virus; assay: Antiviral activity against RSV infected in human HEp-2 cells assessed as decrease in virus induced NF-kappaB gene expression measured after 48 hrs by RT-PCR analysis; format: functional, organism-based
[20] = tested on: Respiratory syncytial virus; assay: Antiviral activity against RSV infected in human HEp-2 cells assessed as decrease in virus induced IFN-beta gene expression measured after 48 hrs by RT-PCR analysis; format: functional, organism-based
[21] = tested on: Respiratory syncytial virus; assay: Antiviral activity against RSV infected in human HEp-2 cells assessed as decrease in virus induced IL-6 gene expression measured after 48 hrs by RT-PCR analysis; format: functional, organism-based
[22] = tested on: Respiratory syncytial virus; assay: Antiviral activity against RSV infected in human HEp-2 cells assessed as downregulation of RIG-1 expression at 25 to 50 uM treated 48 hpi and measured after 48 hrs by Western blot analysis; format: functional, organism-based; conditions: dose 25-50 µM
[23] = tested on: Respiratory syncytial virus; assay: Antiviral activity against RSV Long infected in BALB/c mouse assessed as reduction in lung tissue damage by measuring lung index at 25 to 100 mg/kg/day measured after 4 to 6 days of virus infection; format: functional, organism-based; conditions: dose 25-100 mg/kg/day, time 4-6 day
[24] = tested on: Respiratory syncytial virus; assay: Antiviral activity against RSV Long infected in BALB/c mouse assessed as improvement in lung congestion at 25 to 100 mg/kg/day observed on day 6 after infection by H and E staining based microscopic analysis; format: functional, organism-based; conditions: dose 25-100 mg/kg/day, time 6.0 day
[25] = tested on: Respiratory syncytial virus; assay: Antiviral activity against RSV Long infected in BALB/c mouse assessed as inhibition of alveolar infiltrates accumulation at 25 to 100 mg/kg/day observed on day 6 after infection by H and E staining based microscopic analysis; format: functional, organism-based; conditions: dose 25-100 mg/kg/day, time 6.0 day
[26] = tested on: Respiratory syncytial virus; assay: Antiviral activity against RSV Long infected in BALB/c mouse assessed as improvement in inflammatory infiltration of lung tissue at 25 mg/kg/day observed on day 6 after infection by H and E staining based microscopic analysis; format: functional, organism-based; conditions: time 6.0 day
[27] = tested on: Respiratory syncytial virus; assay: Antiviral activity against RSV Long infected in BALB/c mouse assessed as lung edema at 25 mg/kg/day observed on day 6 after infection by H and E staining based microscopic analysis; format: functional, organism-based; conditions: time 6.0 day
[28] = tested on: Respiratory syncytial virus; assay: Antiviral activity against RSV infected in BALB/c mouse assessed as inhibition of viral replication by measuring RSV-M gene expression in lung after 2 to 6 days post infection by RT-PCR analysis; format: functional, organism-based; conditions: time 2-6 day
[29] = tested on: Respiratory syncytial virus; assay: Antiviral activity against RSV infected in BALB/c mouse assessed as downregulation of TLR3 expression in lung tissue infected with RSV at 25 to 100 mg/kg/day measured after 2 to 6 days post infection by RT-PCR analysis; format: functional, organism-based; conditions: dose 25-100 mg/kg/day, time 2-6 day
[30] = tested on: Respiratory syncytial virus; assay: Antiviral activity against RSV infected in BALB/c mouse assessed as downregulation of IL-8 expression in lung tissue infected with RSV at 25 to 100 mg/kg/day measured after 2 to 6 days post infection by RT-PCR analysis; format: functional, organism-based; conditions: dose 25-100 mg/kg/day, time 2-6 day
[31] = tested on: Respiratory syncytial virus; assay: Antiviral activity against RSV infected in BALB/c mouse assessed as downregulation of IL-10 expression in lung tissue infected with RSV at 25 to 100 mg/kg/day measured after 2 to 6 days post infection by RT-PCR analysis; format: functional, organism-based; conditions: dose 25-100 mg/kg/day, time 2-6 day
[32] = Selectivity index, ratio of CC50 for human HEp-2 cells to EC50 for Respiratory syncytial virus A2 infected in human HEp-2 cells; format: toxicity, cell-based; conditions: read-out: Selectivity Index

## Cc1c(Br)cc2nc3n(c2c1Br)[C@H]1OC[C@@H](O)[C@H]1OC3
[1]
  EC50: 9.49 µM
[2]
  CC50 at 60 h: 250 µM
[3]
  EC50: 9.49 µM
[4]
  EC50: 19 µM
[5]
  EC50: 12.8 µM
[6]
  EC50: 13.2 µM
[7]
  Activity: Active
[8]
  Activity: Active
[9]
  Activity: Active
[10]
  Activity: 1.8%
[11]
  Activity: 3.9%
[12]
  inhibition: Active
[13]
  Activity: 56.3%
[14]
  Activity: 53.1%
[15]
  Activity: Active
[16]
  Activity: Dose-Dependent Effect
[17]
  Activity: Dose-Dependent Effect
[18]
  Activity: Dose-Dependent Effect
[19]
  Activity: Dose-Dependent Effect
[20]
  Activity: Dose-Dependent Effect
[21]
  Activity: Dose-Dependent Effect
[22]
  Activity: Active
[23]
  Activity: Active
[24]
  Activity: Active
[25]
  Activity: Active
[26]
  Activity: Active
[27]
  Activity: Active
[28]
  Activity: Dose-Dependent Effect
[29]
  Activity: Active
[30]
  Activity: Active
[31]
  Activity: Active
[32]
  selectivity ratio: 19.6
